Series [1] can be described thus: Chemical stability in phosphate buffered saline assessed as compound degradation at 0.05 M at pH 7.4 at 5 to 40 degC after 14 days by HPLC. Type of series: physicochemical. The note with it: buffer, pH 7.4, 336 h.
Series [2] in a line: Chemical stability in phosphate buffered saline assessed as compound degradation at 0.05 M at pH 7.4 at 25 degC after 1 hr by HPLC. The note with it: buffer, pH 7.4, 1 h. It is filed as physicochemical.
Series [3] in a line: Chemical stability in phosphate buffered saline assessed as compound degradation at 0.05 M at pH 7.4 at 5 degC after 1 hr by HPLC. It is filed as physicochemical. The conditions noted are these: buffer, pH 7.4, 1 h.
The nature of series [4]: Chemical stability in phosphate buffered saline assessed as compound degradation at 0.05 M at pH 7.4 at 40 degC after 1 hr by HPLC. It is filed as physicochemical. The note with it: buffer, pH 7.4, 1 h.
Series [5] in a line: Clearance in Rowet nu/nu rat plasma at 15 mg/kg, iv after 5 mins to 6 hrs. Type of series: ADME, organism-based. Further details: dose 15 mg/kg, route intravenous.
Series [6] can be described thus: AUC (0 to 360 mins) in Rowet nu/nu rat plasma at 15 mg/kg, iv after 5 mins to 6 hrs. More on the design: time < 6 hr, dose 15 mg/kg, route intravenous. Type of series: ADME, organism-based.
Series [7] can be described thus: AUC (0 to 360 mins) in Rowet nu/nu rat plasma at […], iv after 5 mins to 6 hrs. It is filed as ADME, organism-based. Further details: time < 6 hr, route intravenous.
Series [8] in a line: Half life in rat at 125 mg/kg/hr, iv after 2 hrs. Type of series: ADME, organism-based. More on the design: route intravenous. The conditions noted are these: in vivo.
A short description of series [9]: Clearance in Rowet nu/nu rat plasma at […], iv after 5 mins to 6 hrs. Type of series: ADME, organism-based.

From ChEMBL document CHEMBL1154159, “Didanosine ester prodrugs: synthesis, albumin binding properties and pharmacokinetic studies in rats” (Eur J Med Chem, 2009) come the findings set out here.

Take `O=C(O)CCCCCCCCCCC(=O)OC[C@H]1CC[C@@H](n2cnc3c(=O)[nH]cnc32)O1`: the Stability entry in series [1] was “Unstable”; in [2], “Stable”; in [3], “Stable”; in series [4], “Stable”.
For the compound `O=C(O)CCCCC(=O)OC[C@H]1CC[C@@H](n2cnc3c(=O)[nH]cnc32)O1`, the Stability entry was “Unstable” in [1], “Stable” in [2], “Stable” in series [3] and “Stable” in series [4].
By clearance is commonly meant the volume of plasma or blood freed of the substance per unit of time. Low values mean inefficient removal, high ones efficient removal. Broadly, the AUC(0-t) is the area under the concentration-time curve up to a stated or last time point. A low value points to less exposure. Turning to `O=C(O)CCCCCCCC(=O)OC[C@H]1CC[C@@H](n2cnc3c(=O)[nH]cnc32)O1`, the clearance in [5] came out at 107 mL/min/kg. Also, the Stability result in [1] is recorded as “Unstable”; in [2] it was “Stable”; in series [3] it was “Stable”; in series [4] it was “Stable”. The compound further showed an AUC(0-t) at 6 h in series [6] of 2680 ng·h/mL.
By half-life is commonly meant the time in which the quantity being followed falls by half. As for `O=c1[nH]cnc2c1ncn2[C@H]1CC[C@@H](CO)O1` [DIDANOSINE], the AUC(0-t) at 6 h in series [7] is 2100 ng·h/mL. Besides, in series [8], the half-life is 1 h. The compound further showed a clearance in [9] of 134 mL/min/kg.
